Measured values from PubChem BioAssay (NCI).
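Compound exposure: 48 hours, 5 concentrations, 96-well plates. Abbreviation: GI50, concentration required for 50% inhibition of growth. At the TGI there is no net growth.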

Columns and labels:
Test in all cases: NCI tumour cell line growth inhibition, 48 h
RXF 393 renal = system: RXF 393 renal
COLO 205 colon = system: COLO 205 colon
OVCAR-3 ovarian = system: OVCAR-3 ovarian
SK-MEL-28 melanoma = system: SK-MEL-28 melanoma
NCI-H522 lung = system: NCI-H522 lung
SN12C renal = system: SN12C renal
MCF7 breast = system: MCF7 breast
NCI-H23 lung = system: NCI-H23 lung
HCT-15 colon = system: HCT-15 colon
HCT-116 colon = system: HCT-116 colon

SMILES	GI50 (RXF 393 renal) [µM]	TGI (RXF 393 renal) [µM]	GI50 (COLO 205 colon) [µM]	TGI (COLO 205 colon) [µM]	GI50 (OVCAR-3 ovarian) [µM]	TGI (OVCAR-3 ovarian) [µM]	GI50 (SK-MEL-28 melanoma) [µM]	TGI (SK-MEL-28 melanoma) [µM]	GI50 (NCI-H522 lung) [µM]	TGI (NCI-H522 lung) [µM]	GI50 (SN12C renal) [µM]	TGI (SN12C renal) [µM]	GI50 (MCF7 breast) [µM]	TGI (MCF7 breast) [µM]	GI50 (NCI-H23 lung) [µM]	TGI (NCI-H23 lung) [µM]	GI50 (HCT-15 colon) [µM]	TGI (HCT-15 colon) [µM]	GI50 (HCT-116 colon) [µM]	TGI (HCT-116 colon) [µM]
CCCCCCCCCCCCCCNC(=O)Nc1ccc(Cl)c(Cl)c1	4.01	> 26.3	1.81	3.48	2.47	6.31	3.7	> 100	1.66	5.75	2.85	> 100	2.86	> 36.1	2.86	26.3	3.21	> 100	2.37	> 23.3
C#Cc1ccc(-n2c(/C=C/c3ccc(O)cc3)nc3ncccc3c2=O)cc1	1.48	4.41	> 100	> 100	2.41	5.69	5.97	> 100	2	6.04	5.16	> 100	3.04	> 100	5.52	> 100	4.65	> 100	5.07	> 100
Cc1cc(Cl)nc(N(CCNc2ccnc3cc(Cl)ccc23)Cc2ccco2)n1	1.24	2.89	1.64	3.23	1.75	3.32	1.74	3.33	1.76	3.61	1.98	3.95	1.69	3.36	2.57	9.65	1.61	3.69	1.58	3.2
S=C1SCN(Cc2ccccc2)CN1Cc1ccco1	2	5.53	4.4	14.3	3.98	15	5.75	20.1	2.59	9.92	4.06	15.3	1.78	16.1	5.21	34.9	2.95	14.4	1.47	12.3
CCCCCC(=O)O[C@]1(C(C)=O)CCC2C3CCC4=CC(=O)CC[C@]4(C)C3CC[C@@]21C (stereo not given in full)	1.81	4.47	2.13	4.04	1.9	3.9	2.49	6.82	1.88	5.63	1.6	3.37	2.51	8.39	2.46	9.97	3.22	12.6	1.75	4.23
Nc1nccc(-c2c(-c3ccc(F)cc3)nn3cc(C(F)(F)F)ccc23)n1	> 25	> 25	> 25	> 25	> 25	> 25	> 25	> 25	> 25	> 25	> 25	> 25	> 25	> 25	> 25	> 25	> 25	> 25	> 25	> 25
COCCN(Cc1ccc(F)cc1)c1ccc(CO)c(Cl)c1	4.9	> 34.6	11.1	31.8	3.54	15.4	31.3	> 100	39.1	> 100	24.9	> 100	2.79	> 100	17.2	> 100	30.6	> 100	0.821	> 56.5
[O]=[V]([OH])([OH])[OH]	> 100	> 100	> 100	> 100	> 100	> 100	> 100	> 100	> 100	> 100	> 100	> 100	> 100	> 100	> 100	> 100	> 100	> 100	> 100	> 100
CN1CCN(c2c(F)cc(NC3=C(Cl)C(=O)c4ncccc4C3=O)cc2F)CC1	1.67	3.31	2.14	4.82	0.303	1.37	6.47	19	1.43	3.82	3.22	13.2	2.04	5.35	11.8	32	1.82	4.09	1.78	3.35
Cc1ccc(S(=O)(=O)NCCCCC(N)C(=O)O)cc1 (stereo not given)	–	> 100	–	> 100	–	> 100	–	> 100	–	> 100	–	> 100	–	> 100	–	> 100	–	> 100	–	> 100
Cc1cc(Br)c(NC(=O)c2c(-c3c(Cl)cccc3Cl)noc2C)c(Br)c1	71.9	> 100	> 100	> 100	> 100	> 100	> 100	> 100	> 100	> 100	> 100	> 100	> 100	> 100	> 100	> 100	> 100	> 100	> 100	> 100
Cc1cnc(C(=O)NNc2nc3sc4c(c3c(=O)[nH]2)C(C)CCC4)cn1 (stereo not given)	1.76	8.2	2.03	13.4	0.506	17.1	1.37	29.6	2.97	> 100	1.17	31.4	1.9	> 100	2.25	43	0.411	23.6	0.672	17
CCO/C=C1\SC(=S)N(c2ccc(OCC)cc2)C1=O	–	> 100	–	> 100	–	> 100	–	> 100	–	> 100	–	> 100	–	> 100	–	> 100	–	> 100	–	> 100
